# From PubChem BioAssay (NCI)
#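 96-well plates; 48 h exposure; 5 concentrations. Endpoints by linear interpolation between flanking doses. Not reached: highest tested concentration assigned. The concentration for 50% growth inhibition is given as GI50. TGI marks complete inhibition of growth.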
# What was measured:
# Test in all cases: NCI-60 cell line screen, 48 h
# SNB-19 CNS = test system: SNB-19 CNS
# OVCAR-8 ovarian = test system: OVCAR-8 ovarian
# OVCAR-5 ovarian = test system: OVCAR-5 ovarian
# NCI-H460 lung = test system: NCI-H460 lung
# MDA-MB-435 = test system: MDA-MB-435
# SN12C renal = test system: SN12C renal
# M14 melanoma = test system: M14 melanoma
# HS 578T breast = test system: HS 578T breast
# UACC-257 melanoma = test system: UACC-257 melanoma
# MOLT-4 leukemia = test system: MOLT-4 leukemia
SMILES,TGI (SNB-19 CNS) [µM],TGI (OVCAR-8 ovarian) [µM],TGI (OVCAR-5 ovarian) [µM],TGI (NCI-H460 lung) [µM],TGI (MDA-MB-435) [µM],TGI (SN12C renal) [µM],TGI (M14 melanoma) [µM],TGI (HS 578T breast) [µM],TGI (UACC-257 melanoma) [µM],TGI (MOLT-4 leukemia) [µM],GI50 (SNB-19 CNS) [µM],GI50 (OVCAR-5 ovarian) [µM],GI50 (NCI-H460 lung) [µM],GI50 (MDA-MB-435) [µM],GI50 (M14 melanoma) [µM],GI50 (HS 578T breast) [µM],GI50 (UACC-257 melanoma) [µM],GI50 (MOLT-4 leukemia) [µM],GI50 (OVCAR-8 ovarian) [µM],GI50 (SN12C renal) [µM]
C[C@]12CC[C@H](O)CC1=CC[C@@H]1C2CC[C@]2(C)c3nn(-c4ccc(F)cc4)nc3CC12 (some centres undefined),> 100,> 100,> 100,> 100,> 100,> 100,> 100,> 100,> 100,> 100,,,,,,,,,,
Nc1nc(Nc2ccc3c(c2)CC[C@@H](N2CCCC2)CC3)nn1-c1cc2c(nn1)-c1ccccc1CCC2,3.45,,3.29,2.82,3.1,,3,4.86,3.66,3.63,1.83,1.63,1.31,1.69,1.43,1.79,1.89,0.82,,
CCC1=C[C@@H]2CN(C1)Cc1c([nH]c3ccccc13)[C@@](C(=O)OC)(c1cc3c(cc1OC)N(C=O)[C@H]1[C@@](O)(C(=O)OC)[C@H](OC(C)=O)[C@]4(CC)[C@@H]5C[C@@H]5CN5CC[C@]31[C@@H]54)C2,> 6.25,> 6.25,> 6.25,> 6.25,< 0.000625,> 6.25,0.0643,> 6.25,> 6.25,> 6.25,0.00127,0.00255,0.00135,< 0.000625,0.00169,0.00181,> 6.25,0.000789,0.00268,0.0228
COc1c(C)c2c(c(O)c1C/C=C(\C)CCC(=O)OCCN1CCOCC1)C(=O)OC2,> 100,> 100,> 100,> 100,> 100,> 100,> 100,> 100,> 100,> 100,0.325,2.09,0.0823,0.201,0.29,7,0.573,0.302,0.464,0.448
O=C(Nc1ccc(-n2cc(-c3ccncc3)c(-c3ccc(Cl)c(O)c3)n2)cc1)Nc1cc(C(F)(F)F)cc(C(F)(F)F)c1,9.97,5.48,7.21,3.85,3.45,7.57,3.56,6.59,5.22,7.37,3.01,2.26,1.92,1.77,1.76,2.04,2.01,1.95,1.99,2.03
O=C1C(=Cc2ccco2)C(=O)C2CCCCC12 (centres undefined),> 100,> 100,> 100,> 100,> 100,> 100,> 100,> 100,> 100,> 100,,,,,,,,,,
COc1ccc(C2=NN(C(=O)COc3ccc(Cl)cc3)C(O)(c3cc(F)c(Cl)cc3Cl)C2)cc1OC (centres undefined),25.8,14.1,13.3,24.3,3.48,13.3,6.5,13.4,8.01,> 20.6,11.7,5.91,8.87,1.62,2.18,4.5,2.74,1.47,5.7,3.65
OC(C1=C/C(=C\c2ccncc2)c2ccccc21)c1ccncc1 (centres undefined),69.2,> 100,37.4,28.2,27.9,35.4,27.8,> 54.1,19.1,23.9,,,,,,,,,,
CCN1C(=O)N(CC)C2C1NN=c1s/c(=C3\C(=O)N(CC(C)C)c4ccccc43)c(=O)n12 (centres undefined),39.2,> 100,> 100,> 100,0.521,> 100,> 100,23.9,> 100,> 100,1.89,2.27,0.471,0.224,0.445,0.665,,0.974,1.33,1.95
Cc1cccc(C)c1NC(=O)/C(Cl)=C(/Cl)C(=O)O,> 70.1,40.9,40.6,> 69.9,51,33.7,12.6,83.2,29.8,27.5,,,,,,,,,,
COc1cc(NC(=O)c2cc(OC)c3ccn(C)c3c2)cc2c1C[C@]1(C)CC[C@@H](O)C(C)(C)[C@H]1O2,> 100,> 100,> 100,> 100,43.6,> 100,14,9.34,> 100,15,25.3,27.3,5.24,9.08,2.91,2.33,7.6,2.98,26,27.9
CCN(CC)CCOc1ccc(Nc2ncc3cc(-c4ccc(O)cc4)c(=O)n(C)c3n2)cc1,27.5,15.2,30.8,8.85,16.1,21.2,7.12,19.8,31.6,21.8,8.57,10.7,3.77,0.983,1.27,0.274,7.57,0.2,3.72,0.212
C/C=C(\C)C(=O)N[C@H]1[C@@H](OC(C)=O)C[C@]2(C)C3CC[C@@]4(C)C(CC[C@@H]4C(C)N(C)C)C3CCC2[C@H]1O (some centres undefined),28.9,43.4,28.2,5.8,6.78,19.6,3.72,43.1,5.16,33.8,13.6,13.8,2.18,2.27,2.02,12.4,1.98,6.19,11.2,5.55
COC1/C=C\C=C(/C)C(=O)Nc2cc3nc4ccc(Br)cc4oc-3c(c2=O)CC(C)CC(OC)C(O)C(C)/C=C(\C)C1OC(N)=O (centres undefined),29.4,14.5,5.88,17.9,2.99,6.36,5.33,22.9,6.93,0.466,,0.00434,0.00446,0.0342,0.00414,,0.00321,0.0031,,
Cn1ccc2c(NCCN)c3c(c(NCCN)c21)C(=O)c1ccccc1C3=O,47.2,13.4,12,2.24,5.59,1.61,8.68,5.26,> 27.7,,20.5,2.78,0.448,1.54,2.32,1.84,10.2,< 0.0429,2.84,0.465
COc1ccccc1C1=C2C(=O)N(C)C(c3ccccc3OC)=C2C(=O)N1C,75.4,> 100,> 100,> 100,> 100,> 100,> 100,97.1,> 100,> 100,,,,,,,,,,
C[C@@H]1O[C@@H](O[C@@H]2[C@@H](O)[C@H](OCCc3ccc(O)c(O)c3)O[C@H](COC(=O)/C=C/c3ccc(O)c(O)c3)[C@H]2O)[C@H](O)[C@H](O)[C@H]1O,> 100,,> 100,> 100,40.1,> 100,> 100,> 100,> 100,> 100,> 100,> 100,> 100,19.9,> 100,> 100,62.9,> 100,,68.7
O=C(/C=C/C=C/c1ccccc1)CCc1ccccc1,> 100,> 100,> 100,,> 100,> 100,> 100,> 100,> 100,56.1,,,,,,,,,,
C=C1CC[C@@]2(C#N)[C@H]3[C@H](CC[C@@H]2C)[C@@H](C)C[C@@H](CC(C)(C)C#N)[C@H]13,70.1,33.7,,12.8,95.7,64.8,12.5,55,56.4,72.1,10.1,,0.877,2.06,1.48,0.637,8.3,3.02,0.785,5.71
Cc1ccccc1C(=O)C#Cc1cn(C2CC(O)C(CO)O2)c(=O)[nH]c1=O (centres undefined),> 100,> 100,,> 100,> 100,> 100,> 100,> 100,> 100,92.5,,,,,,,,,,
